In one assay the test system is Spodoptera frugiperda. Kind of assay: Insecticidal activity against Spodoptera frugiperda larvae in disk of maize leaf treated as spray. Format: functional, organism-based.
The next assay relates to Phaedon cochleariae. Put plainly: Insecticidal activity against Phaedon cochleariae larvae in disk of Chinese cabbage leaf treated as spray. It counts as functional, organism-based.

Calls of active or inactive are those of the source.

`COc1cc2c(cc1OC)N(C)C1=C(C(=O)OC1)C2c1cc(OC)c(OC)c(OC)c1` (configuration not stated): the result with Spodoptera frugiperda and in the assay on Phaedon cochleariae was inactive. For `CCN1C2=C(C(=O)OC2)C(c2cc(OC)cc(OC)c2)c2cc(OC)c(OC)cc21` (configuration not stated), the result in the assay with Spodoptera frugiperda and in the assay with Phaedon cochleariae was inactive. For `COc1cc(OC)cc(C2C3=C(COC3=O)Oc3cc(OC)ccc32)c1` (configuration not stated), the outcome with Spodoptera frugiperda and in the assay with Phaedon cochleariae was inactive.

On to `O=C1OCC2=C1C(c1ccc(Cl)cc1)c1cc3c(cc1N2)OCO3` (configuration not stated), for which the outcome in the assay with Spodoptera frugiperda and with Phaedon cochleariae was inactive. For `COc1cc(OC)cc(C2C3=C(COC3=O)Nc3cc(C)cc(C)c32)c1` (configuration not stated), the outcome in the assay on Spodoptera frugiperda and with Phaedon cochleariae was inactive. Regarding `O=C1OCC2=C1C(c1cccc(Cl)c1)c1cc(Cl)ccc1N2` (configuration not stated), the outcome in the assay on Spodoptera frugiperda and in the assay with Phaedon cochleariae was inactive. Regarding `CC(C)(C)OC(=O)N1CC2=C(C1=O)C(c1cccc(Cl)c1)c1cc3c(cc1N2)OCO3` (configuration not stated), the result in the assay with Spodoptera frugiperda was inactive. On to `O=S1(=O)CCC2=C1C(c1cccc(Cl)c1)c1cc3c(cc1N2)OCO3` (configuration not stated), for which the result in the assay on Spodoptera frugiperda and with Phaedon cochleariae was inactive.

On to `COc1cc(OC)cc(C2C3=C(COC3=O)Nc3cc(C(C)(C)C)ccc32)c1` (configuration not stated), for which the result in the assay on Spodoptera frugiperda and in the assay on Phaedon cochleariae was inactive. In the case of `COc1cc(OC)cc(C2C3=C(COC3=O)Nc3cc(OC)c(Cl)cc32)c1` (configuration not stated), the result with Spodoptera frugiperda and in the assay with Phaedon cochleariae was inactive. For the molecule `COc1cc(OC)cc(C2C3=C(COC3=O)Nc3cc(OC(F)(F)F)ccc32)c1` (configuration not stated), the outcome with Spodoptera frugiperda and in the assay on Phaedon cochleariae was inactive. Take `O=C1OCC2=C1C(c1cc(Cl)cc(Cl)c1)c1cc3c(cc1O2)OCO3` (configuration not stated): the result with Spodoptera frugiperda and with Phaedon cochleariae was inactive. Take `O=C1OCC2=C1C(c1cccc(Cl)c1)c1cc3c(cc1O2)OCO3` (configuration not stated): the result in the assay with Spodoptera frugiperda and in the assay on Phaedon cochleariae was inactive.

For the molecule `O=C1OCC2=C1C(c1cccc(OC(F)(F)F)c1)c1cc3c(cc1O2)OCO3` (configuration not stated), the result with Spodoptera frugiperda and in the assay with Phaedon cochleariae was inactive. On to `O=C1CCCC2=C1C(c1cccc(Cl)c1)c1cc3c(cc1N2)OCO3` (configuration not stated), for which the outcome in the assay on Spodoptera frugiperda and in the assay with Phaedon cochleariae was inactive. Turning to `O=C1OCC2=C1C(c1cccc(Br)c1)c1cc3c(cc1O2)OCO3` (configuration not stated), the result in the assay with Spodoptera frugiperda and in the assay on Phaedon cochleariae was inactive.

Turning to `O=S1(=O)CCCC2=C1C(c1cccc(Cl)c1)c1cc3c(cc1N2)OCO3` (configuration not stated), the result in the assay with Spodoptera frugiperda and in the assay with Phaedon cochleariae was inactive. In the case of `COc1cc(OC)cc(C2C3=C(COC3=O)Nc3c(OC)ccc(OC)c32)c1` (configuration not stated), the outcome in the assay with Spodoptera frugiperda and in the assay on Phaedon cochleariae was inactive. As to `O=C1OC2(CCCCC2)C2=C1C(c1cccc(Cl)c1)c1cc3c(cc1N2)OCO3` (configuration not stated), the outcome with Spodoptera frugiperda and in the assay with Phaedon cochleariae was inactive. In the case of `CC1(C)CC(=O)C2=C(C1)Nc1cc3c(cc1C2c1cccc(Cl)c1)OCO3` (configuration not stated), the result in the assay with Spodoptera frugiperda and with Phaedon cochleariae was inactive. Take `COc1cc(OC)cc(C2C3=C(COC3=O)Nc3cc(OCc4ccccc4)ccc32)c1` (configuration not stated): the result with Spodoptera frugiperda and in the assay with Phaedon cochleariae was inactive. On to `COc1cc(C2(C)C3=C(COC3=O)Nc3cc(Cl)ccc32)cc(OC)c1OC` (configuration not stated), for which the outcome in the assay with Spodoptera frugiperda and in the assay on Phaedon cochleariae was inactive. In the case of `COc1cc(OC)cc(C2C3=C(COC3=O)Nc3c(C)cc(C)cc32)c1` (configuration not stated), the outcome in the assay with Spodoptera frugiperda and in the assay with Phaedon cochleariae was inactive. In the case of `COc1cc(OC)cc(C2C3=C(Nc4cc5c(cc42)OCO5)C(C)(CC(C)C)NC3=O)c1` (configuration not stated), the result in the assay with Spodoptera frugiperda and in the assay with Phaedon cochleariae was inactive. Turning to `COc1cc(OC)cc(C2(C)C3=C(COC3=O)Nc3cc4c(cc32)OCO4)c1` (configuration not stated), the result in the assay on Spodoptera frugiperda and in the assay on Phaedon cochleariae was inactive. As for `COc1cc(OC)cc(C2C3=C(COC3=O)Oc3c2ccc(OC)c3OC)c1` (configuration not stated), the outcome in the assay with Spodoptera frugiperda and in the assay with Phaedon cochleariae was inactive. Turning to `CC1(C)CS(=O)(=O)C2=C1Nc1cc3c(cc1C2c1cccc(Cl)c1)OCO3` (configuration not stated), the result in the assay with Spodoptera frugiperda and with Phaedon cochleariae was inactive. For `Clc1cccc(C2C3=C(CCC3)Nc3cc4c(cc32)OCO4)c1` (configuration not stated), the outcome in the assay with Spodoptera frugiperda and in the assay with Phaedon cochleariae was inactive.

In the case of `COc1cc(OC)cc(C2C3=C(COC3=O)Nc3cc(OCc4ccccc4)c(Br)cc32)c1` (configuration not stated), the outcome with Spodoptera frugiperda and in the assay on Phaedon cochleariae was inactive. As for `COc1cc(OC)cc(C2C3=C(Nc4cc5c(cc42)OCO5)C(C)(C)NC3=O)c1` (configuration not stated), the result in the assay on Spodoptera frugiperda and in the assay on Phaedon cochleariae was inactive. For the molecule `COc1cc(OC)cc(C2C3=C(COC3=O)Nc3cc(C)c(C)cc32)c1` (configuration not stated), the result with Spodoptera frugiperda and with Phaedon cochleariae was inactive. For the molecule `COc1cc(OC)cc(C2C3=C(CN(C(C)C)C3=O)Nc3cc4c(cc32)OCO4)c1` (configuration not stated), the result with Spodoptera frugiperda and with Phaedon cochleariae was inactive. For `COc1cc(OC)cc(C2C3=C(COC3=O)Nc3cc(OC(F)F)c(OC(F)F)cc32)c1` (configuration not stated), the result in the assay on Spodoptera frugiperda and in the assay on Phaedon cochleariae was inactive. Turning to `COc1cc2c(cc1OC)C(c1cc(OC)c(OC)c(OC)c1)C1=C(O)OCC1=N2` (configuration not stated), the outcome with Spodoptera frugiperda and in the assay with Phaedon cochleariae was inactive. Regarding `O=C1C2=C(C(=O)C1c1ccccc1)C(c1cccc(Cl)c1)c1cc3c(cc1N2)OCO3` (configuration not stated), the outcome in the assay on Spodoptera frugiperda and in the assay with Phaedon cochleariae was inactive. As to `Clc1cccc(C2C3=C(CCCC3)Nc3cc4c(cc32)OCO4)c1` (configuration not stated), the outcome in the assay on Spodoptera frugiperda and in the assay with Phaedon cochleariae was inactive. For the molecule `COc1cc(OC)cc(C2C3=C(COC3=O)Nc3cc(-c4ccccc4)ccc32)c1` (configuration not stated), the result in the assay with Spodoptera frugiperda and in the assay with Phaedon cochleariae was inactive. As for `COc1cc(OC)cc(C2C3=C(Nc4cc5c(cc42)OCO5)C(C)(C)COS3(=O)=O)c1` (configuration not stated), the outcome in the assay with Spodoptera frugiperda and in the assay on Phaedon cochleariae was inactive. Turning to `O=C1OCC2=C1C(c1cccc(Cl)c1Cl)c1cc3c(cc1N2)OCO3` (configuration not stated), the result in the assay on Spodoptera frugiperda and with Phaedon cochleariae was inactive. On to `COc1cc(OC)cc(C2C3=C(CN(C(=O)OC(C)(C)C)C3=O)Nc3cc4c(cc32)OCO4)c1` (configuration not stated), for which the outcome in the assay on Spodoptera frugiperda and with Phaedon cochleariae was inactive.

In the case of `COc1cc(OC)cc(C2C3=C(COC3=O)Nc3cc(Oc4ccccc4)ccc32)c1` (configuration not stated), the result in the assay on Spodoptera frugiperda and in the assay with Phaedon cochleariae was inactive. With `COc1cc(OC)cc(C2C3=C(COC3=O)Nc3cc(OC)c(OC)c(OC)c32)c1` (configuration not stated), the result in the assay with Spodoptera frugiperda and in the assay with Phaedon cochleariae was inactive. For the molecule `O=C1OCC2=C1C(c1cc(Cl)cc(Cl)c1Cl)c1cc3c(cc1N2)OCO3` (configuration not stated), the outcome with Spodoptera frugiperda and in the assay with Phaedon cochleariae was inactive. Take `OC1=C2C(=Nc3cc4c(cc3C2c2ccccc2)OCO4)CO1` (configuration not stated): the result in the assay with Phaedon cochleariae was inactive. As for `O=C1OCC2=C1C(c1cccc(OCCO)c1)c1cc3c(cc1N2)OCO3` (configuration not stated), the outcome in the assay with Phaedon cochleariae was inactive.

(Values after ChEMBL document CHEMBL1137753, “Insecticidal heterolignans--tubuline polymerization inhibitors with activity against chewing pests” (Bioorg Med Chem, 2009).)
